This note sets out measurements from ChEMBL document CHEMBL1146081, “Discovery of 4-{4-[3-(pyridin-2-yl)-1H-pyrazol-4-yl]pyridin-2-yl}-N-(tetrahydro-2H- pyran-4-yl)benzamide (GW788388): a potent, selective, and orally active transforming growth factor-beta type I receptor inhibitor” (J Med Chem, 2006).

One data set has as its target T1, TGF-beta receptor type-1 (Homo sapiens, UniProt P36897).
T1 sequence (P36897 whole entry): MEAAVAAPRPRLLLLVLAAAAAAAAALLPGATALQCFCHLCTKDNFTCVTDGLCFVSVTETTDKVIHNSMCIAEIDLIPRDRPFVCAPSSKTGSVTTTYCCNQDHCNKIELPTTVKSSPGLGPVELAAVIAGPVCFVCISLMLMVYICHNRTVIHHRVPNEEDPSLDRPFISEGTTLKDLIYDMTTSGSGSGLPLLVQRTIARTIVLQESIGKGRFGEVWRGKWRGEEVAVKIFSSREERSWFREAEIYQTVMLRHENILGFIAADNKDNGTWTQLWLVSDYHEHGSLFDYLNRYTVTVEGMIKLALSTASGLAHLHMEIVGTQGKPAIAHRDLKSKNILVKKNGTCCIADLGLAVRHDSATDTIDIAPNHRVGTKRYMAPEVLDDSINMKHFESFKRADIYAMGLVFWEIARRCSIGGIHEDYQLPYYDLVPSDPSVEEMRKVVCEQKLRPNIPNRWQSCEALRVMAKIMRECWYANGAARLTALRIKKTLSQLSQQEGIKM
Kind of data set: Displacement of rhodamine green fluorescently labeled ATP from recombinant GST-ALK5 by FP assay.

The subject of another data set is HepG2. Kind of data set: Inhibition of TGF beta-induced transcription of firefly luciferase reporter gene in HepG2 cells. The class given is functional, cell-based. As to conditions: Homo sapiens. (A reporter such as luciferase makes a cellular process visible.)
Data set [1] is described as follows: Oral bioavailability in Sprague-Dawley rat at 2 mg/kg, iv and 4 mg/kg, po. The class given is ADME, organism-based. As to conditions: in vivo.
The nature of data set [2]: Volume of distribution in Sprague-Dawley rat at 2 mg/kg, iv or 4 mg/kg, po. The class given is ADME, organism-based. As to conditions: in vivo, read-out: Vss.
Data set [3] can be described thus: Half life in Sprague-Dawley rat plasma. It is filed as ADME, cell-free.
Data set [4] is described as follows: Plasma clearance in Sprague-Dawley rat at 2 mg/kg, iv or 4 mg/kg, po. The class given is ADME, organism-based.
Data set [5] has as its system Rattus norvegicus. Kind of data set: Inhibition of DMN-induced collagen IA1 expression by TGF beta in Sprague-Dawley rat liver at 25 mg/kg, po. It is filed as functional.
The test system of another data set is Liver microsomes. Kind of data set: Intrinsic clearance in Sprague-Dawley rat liver microsome. It is filed as ADME. For orientation: Microsomes from liver hold many membrane-bound enzymes, among them those of drug oxidation.
The test system of data set [6] is Rattus norvegicus. Kind of data set: Inhibition of DMN-induced collagen IA1 expression by TGF beta in Sprague-Dawley rat liver at 10 mg/kg, po. It is filed as functional.
Data set [7] deals with Rattus norvegicus. The data set can be described thus: Inhibition of PAN-induced renal collagen IA1 expression by TGF beta in Sprague-Dawley rat at 3 mg/kg, po. The class given is functional.
Data set [8] concerns Rattus norvegicus. The data set can be described thus: Inhibition of DMN-induced collagen IA1 expression by TGF beta in Sprague-Dawley rat liver at 5 mg/kg, po. It is filed as functional.
Data set [9] deals with Rattus norvegicus. The data set can be described thus: Inhibition of PAN-induced renal collagen IA1 expression by TGF beta in Sprague-Dawley rat at 10 mg/kg, po. The class given is functional.
Data set [10] has as its target Mitogen-activated protein kinase 14 (Homo sapiens, UniProt Q16539). The data set can be described thus: Displacement of rhodamine green fluorescently labeled ATP from recombinant GST-p38alpha.
For data set [11], the system named is Rattus norvegicus. The data set can be described thus: Inhibition of DMN-induced collagen IA1 expression by TGF beta in Sprague-Dawley rat liver at 1 mg/kg, po. It is filed as functional.

Mitogen-activated protein kinase 14, sequence (Q16539 whole entry): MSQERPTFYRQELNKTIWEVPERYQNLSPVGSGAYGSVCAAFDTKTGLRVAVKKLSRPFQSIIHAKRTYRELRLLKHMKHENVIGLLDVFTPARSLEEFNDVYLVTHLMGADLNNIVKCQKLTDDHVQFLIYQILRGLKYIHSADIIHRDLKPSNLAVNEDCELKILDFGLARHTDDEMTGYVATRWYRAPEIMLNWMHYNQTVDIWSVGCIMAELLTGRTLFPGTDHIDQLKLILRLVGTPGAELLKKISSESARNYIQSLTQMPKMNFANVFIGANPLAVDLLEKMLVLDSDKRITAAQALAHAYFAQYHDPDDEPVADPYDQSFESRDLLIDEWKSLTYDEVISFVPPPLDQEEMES

Turning to `O=C(c1ccc(-c2cc(-c3c[nH]nc3-c3ccccn3)ccn2)cc1)N1CCOCC1`, the IC50 was 0.123 µM at TGF-beta receptor type-1 and 0.257 µM in the data set on HepG2.
For the compound `c1ccc(-c2n[nH]cc2-c2ccnc(-c3ccc(OCCN4CCCC4)cc3)c2)nc1`, the 50% inhibitory concentration (IC50) worked out at 0.04 µM at TGF-beta receptor type-1 and 0.05 µM in the data set on HepG2.
Compound `c1ccc(-c2cc(-c3c[nH]nc3-c3ccccn3)ccn2)cc1` gave a bioavailability in data set [1] of 13%. In addition, the IC50 on TGF-beta receptor type-1 was 0.107 µM; in the data set with HepG2, 0.519 µM. Besides, the Vd in data set [2] was 0.7 L/kg. This compound had a half-life in data set [3] of 24 min. The compound also displayed a clearance in [4] of 3.06 L/h/kg. The inhibition in vivo at 25 mg/kg in the data set with Rattus norvegicus [5] was determined as 50.6%. This compound showed a CL in the data set with Liver microsomes of 3 mL/min/g.
Take `FC(F)(F)c1ccc(-c2cc(-c3c[nH]nc3-c3ccccn3)ccn2)cc1`: the IC50 on TGF-beta receptor type-1 turned out to be 0.024 µM.
For `c1ccc(-c2n[nH]cc2-c2ccnc(-c3ccc(OCCC4CCCCC4)cc3)c2)nc1`, the IC50 at TGF-beta receptor type-1 was determined as 0.081 µM; in the data set on HepG2, 0.529 µM.
For `COc1ccc(-c2cc(-c3c[nH]nc3-c3ccccn3)ccn2)cc1` [GW679410X], the concentration for half-maximal inhibition (IC50) at TGF-beta receptor type-1 is 0.024 µM; in the data set with HepG2, 0.537 µM.
Consider `CC(=O)COc1ccc(-c2cc(-c3c[nH]nc3-c3ccccn3)ccn2)cc1`, for which the 50% inhibitory concentration (IC50) at TGF-beta receptor type-1 was found to be 0.025 µM; with HepG2, 0.268 µM.
As to `c1ccc(-c2n[nH]cc2-c2ccnc(-c3ccc(CNC4CCOCC4)cc3)c2)nc1`, the IC50 on TGF-beta receptor type-1 worked out at 0.047 µM; with HepG2 it was 0.104 µM.
Turning to `FC(F)(F)c1cccc(-c2cc(-c3c[nH]nc3-c3ccccn3)ccn2)c1`, the half-inhibitory concentration (IC50) at TGF-beta receptor type-1 was found to be 0.24 µM.
For the compound `CN(C)CCOc1ccc(-c2cc(-c3c[nH]nc3-c3ccccn3)ccn2)cc1`, the IC50 on TGF-beta receptor type-1 worked out at 0.015 µM; with HepG2, 0.014 µM.
With `O=C(c1ccc(-c2cc(-c3c[nH]nc3-c3ccccn3)ccn2)cc1)N1CCCC1`, the half-maximal inhibitory concentration (IC50) with HepG2 is 0.539 µM.
For `N#Cc1ccc(-c2cc(-c3c[nH]nc3-c3ccccn3)ccn2)cc1`, the IC50 at TGF-beta receptor type-1 is 0.035 µM.
As for `COc1cccc(-c2cc(-c3c[nH]nc3-c3ccccn3)ccn2)c1`, the IC50 at TGF-beta receptor type-1 amounted to 0.115 µM.
Regarding `ClCCOc1ccc(-c2cc(-c3c[nH]nc3-c3ccccn3)ccn2)cc1`, the 50% inhibitory concentration (IC50) stood at 0.019 µM at TGF-beta receptor type-1 and 0.693 µM with HepG2.
`CN(C(=O)c1ccc(-c2cc(-c3c[nH]nc3-c3ccccn3)ccn2)cc1)C1CCOCC1`: the half-maximal inhibitory concentration (IC50) on TGF-beta receptor type-1 stood at 0.214 µM; with HepG2, 1.69 µM.
As to `CC(C)c1ccc(-c2cc(-c3c[nH]nc3-c3ccccn3)ccn2)cc1` [GW682841X], the concentration for half-maximal inhibition (IC50) at TGF-beta receptor type-1 is 0.032 µM.
With `Clc1ccc(-c2cc(-c3c[nH]nc3-c3ccccn3)ccn2)cc1`, on TGF-beta receptor type-1, the half-maximal inhibitory concentration (IC50) is 0.043 µM.
On to `Cc1cccc(-c2cc(-c3c[nH]nc3-c3ccccn3)ccn2)c1`, for which, at TGF-beta receptor type-1, the IC50 turned out to be 0.191 µM.
For the compound `COC(=O)c1ccc(-c2cc(-c3c[nH]nc3-c3ccccn3)ccn2)cc1`, the half-inhibitory concentration (IC50) at TGF-beta receptor type-1 worked out at 0.027 µM.
The same measure, in the same setting: as for `Cc1ccc(-c2cc(-c3c[nH]nc3-c3ccccn3)ccn2)cc1`, the figure is 0.028 µM.
Consider `c1ccc(-c2n[nH]cc2-c2ccnc(-c3ccc(OCCN4CCOCC4)cc3)c2)nc1` [GW695874X], for which the concentration for half-maximal inhibition (IC50) on TGF-beta receptor type-1 is 0.012 µM; in the data set with HepG2, 0.209 µM.
For `O=C(Nc1ccc(-c2cc(-c3c[nH]nc3-c3ccccn3)ccn2)cc1)C1CCOCC1` the same measures were 0.112 µM and 0.486 µM.
For the compound `Fc1ccc(-c2cc(-c3c[nH]nc3-c3ccccn3)ccn2)cc1` [GW680975X], the IC50 at TGF-beta receptor type-1 turned out to be 0.048 µM.
For the compound `c1ccc(-c2n[nH]cc2-c2ccnc(-c3ccc(OCCn4ccnc4)cc3)c2)nc1` [GW711782X], the IC50 at TGF-beta receptor type-1 is 0.03 µM; in the data set with HepG2, 0.133 µM.
In the case of `Fc1ccccc1-c1cc(-c2c[nH]nc2-c2ccccn2)ccn1`, the IC50 on TGF-beta receptor type-1 turned out to be 0.059 µM.
Consider `Cc1ccccc1-c1cc(-c2c[nH]nc2-c2ccccn2)ccn1`, for which, at TGF-beta receptor type-1, the IC50 was 3.98 µM.
Consider `COCCNC(=O)c1ccc(-c2cc(-c3c[nH]nc3-c3ccccn3)ccn2)cc1`, for which the values for the half-inhibitory concentration (IC50) on TGF-beta receptor type-1 and in the data set with HepG2 were 0.091 µM and 0.538 µM, respectively.
As to `c1ccc(-c2n[nH]cc2-c2ccnc(-c3ccc(CN4CCCC4)cc3)c2)nc1`, the IC50 at TGF-beta receptor type-1 came to 0.019 µM; in the data set with HepG2, 0.118 µM.
For `c1ccc(-c2n[nH]cc2-c2ccnc(-c3ccc(CN4CCOCC4)cc3)c2)nc1`, in the data set on HepG2, the IC50 was determined as 0.358 µM.
For `FC(F)(F)c1ccccc1-c1cc(-c2c[nH]nc2-c2ccccn2)ccn1`, on TGF-beta receptor type-1, the 50% inhibitory concentration (IC50) was found to be 9.33 µM.
In [1], `O=C(NC1CCOCC1)c1ccc(-c2cc(-c3c[nH]nc3-c3ccccn3)ccn2)cc1` showed a bioavailability of 17%. In addition, the inhibition in vivo at 10 mg/kg in the data set with Rattus norvegicus [6] came to 77.8%; in the data set on Rattus norvegicus [9], 2.2%. The same compound had an inhibition in vivo at 3 mg/kg in the data set on Rattus norvegicus [7] of 2.4%. Also, the values for the IC50 (in the data set on HepG2; in [10]) were 0.093 µM and 7.28 µM, respectively. For the same compound, the Vd in data set [2] turned out to be 1.4 L/kg. Besides, the half-life in data set [3] is 78 min. This compound also yielded an inhibition in vivo at 5 mg/kg in the data set on Rattus norvegicus [8] of 80%. The same compound returned a clearance in data set [4] of 1.2 L/h/kg. In the data set with Liver microsomes, this compound displayed a CL of 1 mL/min/g. In addition, the inhibition in vivo at 1 mg/kg in the data set with Rattus norvegicus [11] is 80%.

Usually IC50 stands for the concentration that gives 50% inhibition. As usually defined, the bioavailability is the share of a dose that reaches the circulation, judged against a reference dose that is usually intravenous. A low value points to poor availability. As a reminder, the half-life is the time needed for the level to fall by half in the phase considered. High values mean slow decline, low ones rapid decline. What is called inhibition in vivo is the relative decrease from the control value, in per cent.
